Experimental data as given in patent publication US6448287B1 (priority 1999, dated 2002).
Converted amounts (≈) assume the structure as drawn. Like-named read-outs stand apart in the source and are kept apart here.

Columns and labels:
B16 melanoma = experiment: Murine tumor model: B16 melanoma in C57 mice; assay type: in vivo
Description: C57 mice were divided into groups of twenty and inoculated by B16 melanoma cells subcutaneously. After forty-eight hours, treatments were administered once every other day for a five week period by subcutaneous injection near the tumor site. Tumor size was measured on days ten, seventeen, and twenty-four of treatment. […]

[1] = system: SW620 hollow fiber tumors
Description: (§3) SW620 hollow fiber solid tumors were grown as previously described. […] SW620 colon carcinoma cells were prepared in cell culture medium at a concentration of 10^7 cells/ml and injected into the hollow fibers. The fibers were then heat sealed at roughly 2 cm intervals to trap the cells inside them. SW620 hollow fibers were then cultured in Petri dishes for three days. After three days, the hollow fibers are transferred to stirred medium either by moving them to spinner flasks containing 50 ml cell culture medium stirred at 150 rpm by a magnetic stirrer or by transferring them to six-well plates placed on an orbital shaker at 150 rpm. Cell culture medium was replenished on days three and six. […] After one or two days incubation on an orbital shaker, the hollow fiber tumors were rinsed and the cells were extruded out of the fibers with trypsin. The cylindrical tumor cell mass was exposed to trypsin while pipetting up and down to form a single cell suspension. Cell culture medium was then added to stop trypsin action. Surviving fractions were determined as previously described. Briefly, cells were transferred to ninety-six-well plates at a concentration of 5000 cells per well and incubated for six days. The surviving cell population was then measured using the SRB colorimetric assay. Surviving fraction was expressed as the ratio of the SRB staining at a given dose to that for cells from untreated hollow fiber tumors.
(§4) The surviving fractions without ascorbate (denoted SFO) were analyzed along with the doses of ascorbate required to reduce the surviving fraction to half the SFO value, denoted LC50. Standard deviations for SFO and LC50 values were analyzed by the curve-fitting program KalediaGraph (Synergy Software).
(§5) Data from three replicate experiments were pooled. The doses of ascorbate required to reduce the surviving fraction to half the control value were denoted as LC50. Standard deviations on LC50 values were estimated by the curve-fitting program kaleidaGraph (Synergy Software).

[2] = Toxicity test in cell monolayers, ECV-304; assay type: cell-based; conditions: human, ECV-304 endothelial cell monolayer; read-out: LC50
Description: (§1) In solid tumors, proliferating cells are sometimes more sensitive to treatment than quiescent, non-proliferating cells. To investigate this in cell monolayers, we used sparse plating densities (6K/well in a 96 well plate) to allow cell proliferation and confluent densities (24K/well in a 96 well plate) to simulate quiescent cells. Cells were plated in 96 well plates at sparse or confluent densities and then incubated four days in growth medium supplemented with various doses of antioxidants. After incubation, cell numbers were determined by standard […] techniques. Data were analyzed by scaling the cell number at any given antioxidant dose to that of the control and fitting the dose-response data to a sigmoid curve. Values of LC50, the dose required to reduce cell number by fifty percent relative to untreated controls, were computed from the sigmoid data fit.

[3] = system: SW620 (Colon Adenocarcinoma); experiment: Toxicity test in cell monolayers, SW620; assay type: cell-based; conditions: Homo sapiens, SW-620, 96 h, lipoic acid as sodium salt
Description: as §1

SK-MEL (Melanoma) = experiment: Toxicity test in cell monolayers, SK-MEL; assay type: cell-based; conditions: Homo sapiens, 96 h, lipoic acid as sodium salt
Description: as §1

[4] = system: Mia PaCa (Pancreatic Carcinoma); experiment: Toxicity test in cell monolayers, Mia PaCa; assay type: cell-based; conditions: Homo sapiens, MIA PaCa-2, 96 h, lipoic acid as sodium salt
Description: as §1

MCF-7 (Breast Carcinoma) = experiment: Toxicity test in cell monolayers, MCF-7; assay type: cell-based; conditions: Homo sapiens, MCF7, 96 h, lipoic acid as sodium salt
Description: as §1

[5] = male, human, in vivo, iv
Description: (§2) A person with diagnosed metastatic prostate cancer was infused intravenously with […] sodium ascorbate in sterile water over an eighty minute period. Blood samples were taken at regular intervals over a twenty-four hour period, frozen, and then analyzed for ascorbate content using a colorimetric assay. The ascorbate plasma concentration was analyzed in a prostate cancer patient given a 60 gram intravenous infusion of sodium ascorbate over an 80 minute period. […] The plasma volume Vp, was fixed at 30 dl. […] Predicted plasma ascorbate levels from a two compartment, four parameter pharmacokinetic model of ascorbate transport and clearance in blood. […] Infusion is modeled as continuous. Parameter values for the compartmental model are as follows: KX=0.124 min^−1, K1=0.124 min^−1, K2=0.038 min^−1. The plasma volume Vp, was fixed at 30 dl. A phase one clinical trial is currently under way to assess the safety of continuous ascorbate infusions, and is currently near completion.

[6] = Phase one clinical trial of continuous ascorbate infusions (safety); conditions: doses up to 50 g/day
Description: as §2

[7] = system: SW620 hollow fiber tumors; conditions: hollow fiber solid tumor model, background statement; cited from earlier work
[8] = system: SW620 hollow fiber tumors; experiment: cells; conditions: Homo sapiens, SW-620, read-out: ascorbate LC50 (dose reducing surviving fraction to half the control value)
Description: as §3, §4, §5

[9] = humans, intravenous infusion, peak level; cited from earlier work

Structure (SMILES): O=C(O)CCCCC1CCSS1 (racemic) [Lipoic Acid, DL-α-Lipoic Acid (DL-6,8-Thioctic Acid)]
- Animal Survival (percent) (B16 melanoma; day twenty-four, control 70%): 90%
- Animal Survival (survivors/group) (B16 melanoma; day twenty-four, groups of twenty, control 14/20): 18/20
- tumor size compared with the control group (B16 melanoma; measured on days ten, seventeen and twenty-four of treatment): significantly smaller
- toxic effect of lipoic acid itself (surviving fraction without ascorbate, SFO) ([1]; lipoic acid 5 mg/dl or 20 mg/dl, 48 hours): exhibited a toxic effect

Structure (SMILES): O=C1O[C@H]([C@@H](O)CO)C(O)=C1O [Ascorbate, ascorbic acid]
- CC50 at 4 days [2]: 1490 ± 160 µg/mL (≈ 8.46 mM)
- CC50 ([3]; read-out: LC50, SW620, confluent density (24K/well), four days incubation): 390 ± 140 µg/mL
- CC50 ([3]; read-out: LC50, SW620, sparse density (6K/well), four days incubation): 300 ± 40 µg/mL
- CC50 (SK-MEL (Melanoma); read-out: LC50, SK-MEL, confluent density (24K/well), four days incubation): 780 ± 160 µg/mL
- CC50 (SK-MEL (Melanoma); read-out: LC50, SK-MEL, sparse density (6K/well), four days incubation): 150 ± 20 µg/mL
- CC50 ([4]; read-out: LC50, Mia PaCa, confluent density (24K/well), four days incubation): 3080 ± 330 µg/mL
- CC50 ([4]; read-out: LC50, Mia PaCa, sparse density (6K/well), four days incubation): 530 ± 60 µg/mL
- CC50 (MCF-7 (Breast Carcinoma); read-out: LC50, MCF-7, confluent density (24K/well), four days incubation): 230 ± 30 µg/mL
- CC50 (MCF-7 (Breast Carcinoma); read-out: LC50, MCF-7, sparse density (6K/well), four days incubation): 120 ± 10 µg/mL
- K1 [5]: 0.124 min⁻¹
- K2 [5]: 0.038 min⁻¹
- KX [5]: 0.124 min⁻¹
- peak plasma value [5]: 460 mg/dL
- safety of continuous ascorbate infusions [6]: found safe
- surviving fraction ([1]; 52 mg/dL ascorbate for forty-eight hours, based on the data in EXAMPLE 2): greater than ninety percent
- ascorbate concentration that may be required to effectively treat tumors [7]: > 500 mg/dL
- CC50 [8]: 4900 µg/mL (≈ 27.8 mM)
- maximum plasma ascorbic acid concentration generally achievable [9]: roughly 500 mg/dL
